Assay results taken from article PMC3493614, “Structural and Binding Properties of Two Paralogous Fatty Acid Binding Proteins of Taenia solium Metacestode” (PLoS Neglected Tropical Diseases, 2012).
Values joined by “and” are separate entries in the source; they are usually repeats but may differ in a detail not shown here. Identical values can stand only once. Like-named read-outs stand apart in the source and are kept apart here.

Tests used:
recTsMFABP1 [1] = molecular target: T1, recTsMFABP1 (Taenia solium, UniProt Q2XNL7); assay: Fluorometric ligand binding assay, recombinant TsMFABP1; conditions: for Vmax: rate calculated from relative fluorescence (Vmax = Fmax), ligand 0.1-10 µM (FA analogs) or 0.1-10 mM (retinol); for Vmax / Kd: one-site saturation model, 25°C; for Vmax/K d (binding rate constant): ratio of Vmax to K d; for Kd: ligand 0.1-10 µM
Description: (§1) All the proteins were delipidated for 2 h using Sephadex-LH (Sigma-Aldrich) prior to assay. The ligand binding profile of the native and rTsMFABPs were detected spectrofluorometrically using fluorescent FA analogs, including 11-([5-dimethylaminonaphthalene-1-sulfonyl]amino)undecannoic acid (DAUDA), dansyl-DL-α-aminocaprylic acid (DACA) (Molecular Probes), retinol (Sigma-Aldrich) and naturally fluorescent cis-parinaric acid (cPnA; Molecular Probes). Fluorescence emission spectra were recorded at 25°C with a total volume of 200 µl per well using black 96-well Microfluor 1 plates and an Infinite M-200 automated multi-detector (Tecan). The emission and excitation wavelengths for DAUDA, DACA, retinol and cPnA were 519, 519, 325 and 420 nm, and 345, 350, 350 and 315 nm, respectively. We included the TsM 120-kDa protein (10 µM) and recombinant 18 kDa (5 µM; a subunit of the TsM 120-kDa protein), which were proven not to have FA-binding activity, as negative controls during the measurements. All fluorescent stock compounds (10 mM dissolved in ethanol) were stored at −20°C in a dark room and were freshly diluted in ethanol prior to use. The equilibrium dissociation constants (K d) of the proteins bound to DAUDA, retinol and cPnA were estimated by adding increasing concentrations of respective ligands (0.1–10 µM for FA analogs and 0.1–10 mM for retinol) in a micro-quartz plate. Fluorescence intensities were normalized to the peak fluorescence intensity and corrected for background fluorescence of the ligand alone at each concentration. Corrected data were analyzed using the one-site saturation model and best fit algorithm contained in SigmaPlot9 software (y = V max X/K m+X, where y is relative fluorescence and X is concentrations of lipid ligand. V max can be substituted as Fmax [maximum fluorescence]). Competition assays were carried out by monitoring the change in fluorescence intensity at the peak transmission wavelength measured for either rTsMFABPs:DAUDA, rTsMFABPs:retinol or rTsMFABPs:cPnA complex in the presence of 10-fold excess oleic acid.
(§2) The partially purified native and recombinant proteins were subjected to delipidation. Each of the proteins (1 µM) was used in a hydrophobic ligand binding assay against the polarity-sensitive fluorophore-tagged FA analogs (0.1 µM) and retinol (5 mM). […] The TsMFABP2 also bound to DAUDA, although its specific activity was lower than that of the TsMFABP1. […] The retinol-binding activity of rTsMFABP2 appeared to be higher than that of rTsMFABP1. […] No binding activity was detected in the reactions with the TsM 120-kDa and recombinant 18-kDa proteins, which were used as negative controls.

recTsMFABP2 [2] = molecular target: T2, recTsMFABP2 (Taenia solium, UniProt F2WVQ3); assay: Fluorometric ligand binding assay, recombinant TsMFABP2; conditions: for Vmax: rate calculated from relative fluorescence (Vmax = Fmax), ligand 0.1-10 µM (FA analogs) or 0.1-10 mM (retinol); for Vmax/K d (binding rate constant): ratio of Vmax to K d
Description: as §1, §2

recTsMFABP1 [3] = molecular target: T1, recTsMFABP1; assay: Fluorometric ligand binding assay, recombinant TsMFABP1; conditions: rTsMFABP1:DAUDA complex; oleic acid 5 µM (Figure 2B); protein 1 µM, DAUDA 0.1 µM
recTsMFABP2 [4] = molecular target: T2, recTsMFABP2; assay: Fluorometric ligand binding assay, recombinant TsMFABP2; conditions: rTsMFABP2:retinol complex; oleic acid 5 µM (Figure 2D); protein 1 µM, retinol 5 mM
[5] = one-site saturation model, 25°C
[6] = one-site saturation model, ligand 0.1-10 µM, 25°C, read-out: K d
[7] = protein 1 µM, FA analog 0.1 µM, data not shown

T1 sequence (Q2XNL7 entry or part of it): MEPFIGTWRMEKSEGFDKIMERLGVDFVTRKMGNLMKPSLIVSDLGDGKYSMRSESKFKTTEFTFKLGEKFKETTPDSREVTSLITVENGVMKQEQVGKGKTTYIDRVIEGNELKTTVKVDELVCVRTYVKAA
T2 sequence (F2WVQ3 entry or part of it): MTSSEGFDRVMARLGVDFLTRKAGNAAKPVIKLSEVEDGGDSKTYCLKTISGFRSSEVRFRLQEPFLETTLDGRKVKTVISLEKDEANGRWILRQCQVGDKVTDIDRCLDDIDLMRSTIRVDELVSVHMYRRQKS

| Compound | Vmax (recTsMFABP1 [1]) | Vmax/K d (binding rate constant) (recTsMFABP1 [1]) | Vmax/K d (binding rate constant) (recTsMFABP1 [1]; listed as retinol) | Kd (recTsMFABP2 [2]) [nM] | Vmax (recTsMFABP2 [2]; [5]) | Vmax/K d (binding rate constant) (recTsMFABP2 [2]) | Vmax/K d (binding rate constant) (recTsMFABP2 [2]; listed as retinol) | Kd (recTsMFABP1 [1]) [nM] | Kd (recTsMFABP2 [2]; [6]) [nM] | Competition with DAUDA binding (recTsMFABP1 [3]) | Competition with retinol binding (recTsMFABP2 [4]) | Binding (fluorescence interaction mode) (recTsMFABP1 [1]; [7]) | Binding (fluorescence interaction mode) (recTsMFABP2 [2]; [7]) |
| --- | --- | --- | --- | --- | --- | --- | --- | --- | --- | --- | --- | --- | --- |
| CC1=C(/C=C/C(C)=C/C=C/C(C)=C/CO)C(C)(C)CCC1 [Retinol, retinol] | 306.3±31.4 | 172.1±15.5 | 172.1 | 980000 ± 80000 | 207.1±19.6 | 211.3±20.3 | 211.3 | – | – | – | – | – | – |
| CC\C=C/C=C/C=C/C=C\CCCCCCCC(=O)O [cPnA, cis-parinaric acid] | 608.4±57.8 | 2172.9 and 2172.9±214.6 | – | – | 309.1±28.4 | 483.0 and 483.0±47.1 | – | 280 ± 20 | 640 ± 40 | – | – | – | – |
| CN(C)c1cccc2c(S(=O)(=O)NCCCCCCCCCCC(=O)O)cccc12 [DAUDA, 11-([5-dimethylaminonaphthalene-1-sulfonyl]amino)undecannoic acid] | 299.5±3.0 | 139.3 and 139.3±12.7 | – | – | 364.2±3.5 | 38.7 and 38.7±3.94 | – | 2150 ± 140 | 9400 ± 890 | – | – | – | – |
| CCCCCCCC/C=C\CCCCCCCC(=O)O [oleic acid] | – | – | – | – | – | – | – | – | – | competitively inhibited by oleic acid in a dose-dependent manner | significant replacement of retinol from the binding site | – | – |
| CCCCCCC(NS(=O)(=O)c1cccc2c(N(C)C)cccc12)C(=O)O (racemic) [DACA, dansyl-DL-α-aminocaprylic acid] | – | – | – | – | – | – | – | – | – | – | – | interaction modes comparable to those with DAUDA | interaction modes comparable to those with DAUDA |
